Laboratory results published in patent US11951204B2, “Cell-penetrating peptides and composition including the same” (S-SKIN. CO., LTD., priority 2022, dated 2024).
Ends that are not written are not given here. Peptide text beside a SMILES is read from it. * marks the point of attachment. FITC = O=C1OC2(c3ccc(O)cc3Oc3cc(O)ccc32)c2ccc(NC(=S)*)cc21; Palmitoyl = CCCCCCCCCCCCCCCC(=O)*; Ahx = NCCCCCC(=O)O

How the values were obtained:
Format in all cases: cell-based, human
[1] = test system: HaCaT cells; test: Cell penetration rate by flow cytometry; details: 10 μM, 37° C., 1 hour
Description: (§1) HaCaT cells were inoculated at a concentration of 3×10^5 cells/well into a 6-well plate and incubated for 24 hours. Then, the cell culture medium was removed, followed by washing twice with HBSS, and replaced with an Opti-MEM medium. The cells were treated with 10 μM FITC-TAT, FITC-Spep001, FITC-Spep002 or FITC-Spep003 and incubated at 37° C. with 5% CO2 for 1 hour. […] Finally, the cells were treated with 1 mg/mL trypsin and thus separated into single cells, followed by centrifugation at 1,000 rpm for 5 minutes. The FITC fluorescence intensities of cell-penetrating peptides per living 10,000 cells were measured by performing flow cytometry (Navios Flow Cytometer by Beckman Coulter Life Sciences), and the result thereof is shown in FIG. 5A(i) to FIG. 5A(v) and FIG. 5B.

[2] = test system: HDF-N cells
Description: (§2) Cytotoxicity of the cell-penetrating multifunctional peptide according to Example 1 was checked. Specifically, HaCaT cells (human keratinocytes) were inoculated at a concentration of 1.5×10^4 cells/well into a 96-well plate and incubated for 24 hours. Then, the medium was removed, followed by washing once with PBS, and replaced with a serum-free medium. The cells were treated with Spep001 (SEQ ID NO: 1), Spep002 (SEQ ID NO: 8) or Spep003 (SEQ ID NO: 9) at a concentration of 0 μM, 25 μM, 50 μM, 100 μM or 200 μM and then further incubated for 24 hours. Herein, culture conditions were maintained at 37° C. with 5% CO2.
(§3) Also, at the time of completion of incubation, a WST-1 assay (Water Soluble Tetrazolium salt-1, EZ-assay kit, DoGenBio) was conducted. Specifically, 100 μL of a WST-1 solution was added to the well of cells after the completion of further incubation and then incubated for 3 hours. Thereafter, the absorbance at 450 nm was measured using a microplate spectrophotometer (Multiskan™ GO, thermo), and the result thereof is shown in FIG. 2B and Table 2 below.
HDF-N cells were treated with 12.5 μM KTTKS (SEQ ID NO: 5), Spep001-KTTKS (SEQ ID NO: 6) and pal-KTTKS which are peptides fabricated in Example 9. The appearance and proliferation rate of the cells were measured as in Example 3, and the results thereof are shown in FIG. 9A(i) to FIG. 9A(iv), FIG. 9B and Table 7 below.

[3] = Cytotoxicity assay (WST-1, microscopy) in HaCaT cells; details: human, HaCaT cells (keratinocytes), HaCaT, 24 hours, read-out: survival rate (WST-1)
Description: as §2
At the time of completion of further incubation, the appearance of the cells were imaged by a microscope, and the result thereof is shown in FIG. 2A(i) to FIG. 2A(xx).
as §3
Herein, all the result values are expressed in mean±standard deviation. The analysis result of each item was statistically analyzed by a 2-way analysis of variance (ANOVA) test. A Bonferroni post-test was conducted at a P value of *p<0.05 and **p<0.01 only when the significance was determined by ANOVA test. GraphPad prism 5.0.1 (GraphPad Software Inc., San Diego, CA, USA) was used as a statistical software program.

[4] = Cytotoxicity assay (WST-1, microscopy) in HDF-N cells; details: human, HDF-N cells (dermal fibroblasts, neonatal), HDF-N, 24 hours, read-out: survival rate (WST-1)
Description: as §2, §3
The appearance of HDF-N (human dermal fibroblast-neonatal) cells were imaged by a microscope as in Example 3, and the result thereof is shown in FIG. 3A(i) to FIG. 3A(xx). However, the HDF-N cells were inoculated at a concentration of 1.0×10^4 cells/well into a 96-well plate.

[5] = test system: HaCaT cells; test: Dependence of cell penetration on ATP (flow cytometry); details: pre-treated with 2-DG and NaN3
Description: as §1
A test was conducted in the same conditions as those in Example 7 except that the cells were pre-treated with 2-DG (2-deoxyglucose, D6134, sigma) and NaN3 (sodium azide, 71289, sigma) one hour before treatment with FITC-TAT, FITC-Spep001, FITC-Spep002 or FITC-Spep003 to check the dependence of endocytosis on ATP. Then, the FITC fluorescence intensities of peptides penetrating into living cells were measured by flow cytometry as in Example 5, and the result thereof is shown in FIG. 7.

For O=C1OC2(c3ccc(O)cc3Oc3cc(O)ccc32)c2ccc(N=C=S)cc21 [FITC, Fluorescein-5-Isothiocyanate, reference compound], the “cell penetration rate (FITC-positive cell count)” value [1] was 0.4%.
In the case of CCCCCCCCCCCCCCCC(=O)N[C@@H](CCCCN)C(=O)N[C@H](C(=O)N[C@H](C(=O)N[C@@H](CCCCN)C(=O)N[C@@H](CO)C(=O)O)[C@@H](C)O)[C@@H](C)O [Palmitoyl-KTTKS, Pal-KTTKS] (Palmitoyl-KTTKS-OH), the “change in the appearance of the cells (microscope)” value [2] is reported as “appearance of the cells treated with Pal-KTTKS was changed” and the “Cell viability(%)” value ([2]; human, 24 h, 12.5 μM) is reported as 109.22%.
For N=C(N)NCCC[C@H](NC(=O)[C@H](CCCNC(=N)N)NC(=O)[C@H](CCCNC(=N)N)NC(=O)[C@H](CCC(N)=O)NC(=O)[C@H](CCCNC(=N)N)NC(=O)[C@H](CCCNC(=N)N)NC(=O)[C@H](CCCCN)NC(=O)[C@H](CCCCN)NC(=O)[C@H](CCCNC(=N)N)NC(=O)CNC(=O)[C@@H](N)Cc1ccc(O)cc1)C(=O)O [TAT, YGRKRRQRRR, reference compound], the viability at 24 h, 25 µM ([3]; 25 μM peptide) was 102 ± 5.09%, the viability at 24 h, 50 µM ([3]; 50 μM peptide) was 106.3 ± 1.05% and the viability at 24 h, 100 µM ([3]; 100 μM peptide) was 106 ± 2.94%. The viability at 24 h, 200 µM ([3]; 200 μM peptide) was 102 ± 2.15%, the viability at 24 h, 25 µM ([4]; 25 μM peptide) was 106 ± 3.38% and the viability at 24 h, 50 µM ([4]; 50 μM peptide) was 94.9 ± 4.22%. The viability at 24 h, 100 µM ([4]; 100 μM peptide) was 103 ± 3.02% and the viability at 24 h, 200 µM ([4]; 200 μM peptide) was 96.7 ± 5.03%.
In the case of “FITC-Ahx-KRRWRKIPKR ({FITC-Ahx}-KRRWRKIPKR) [FITC-Spep002, Spep002 labelled with FITC at the N-terminal amine group]”, the “cell penetration rate (FITC-positive cell count)” value [1] is reported as 6.3%, the “cell penetration rate based on TAT-FITC with a cell penetration rate of 100%” value [1] is reported as 23.3% and the “FITC fluorescence intensity under ATP deficiency” value [5] is reported as “decreased”.
For “FITC-Ahx-RKRWLRKPRP ({FITC-Ahx}-RKRWLRKPRP) [FITC-Spep003, Spep003 labelled with FITC at the N-terminal amine group]”, the “cell penetration rate (FITC-positive cell count)” value [1] was 7.8%, the “cell penetration rate based on TAT-FITC with a cell penetration rate of 100%” value [1] was 28.8% and the “FITC fluorescence intensity under ATP deficiency” value [5] was “decreased”.
